Columns and labels:
Assay type in all cases: in vivo
[1] = system: carrageenin-induced paw oedema; experiment: Carrageenin oedema in mouse paw; details: mice, carrageenin intraplantar; alpha-humulene 50 mg/kg orally 1 h before; dexamethasone 0.5 mg/kg subcutaneously 4 h before; 30 min to 48 h
Description: The test used below is described by Cunha et. al. in the publication Life Sci. 70:159-169, 2001. […] The left paw received the same volume of saline and was taken as a negative control. The swelling was measured with a plethysmometer (manufacturer: Ugo Basile, Italy) along various time intervals after the injection of the phlogistic agent. The difference between the volumes of the right and the left paw were quantified (in ml) and taken as an index of oedema. One hour before the test the animals were systemically treated (orally) with 50 mg/kg of alphahumulene or trans-caryophyllene. Graph 2 below compares the inhibition of the volume of the oedema by administration of either alpha-humulene or trans-caryophyllene with inhibition obtained with the administration of dexamethasone (0.5 mg/kg, injected subcutaneously 4 h before test) and used as positive control. Oedema volume measurement time point intervals were 30, 60, 120 and 240 min, 24 h and 48 h. Each point represents the average of 5 animals, and the vertical bars the mean standard error deviation.

[2] = system: IL-1β; experiment: Levels of pro-inflammatory cytokine IL-1β in carrageenin-injected rat paw (Elisa); details: 50 mg/kg orally 60 minutes before carrageenin 300 μg/paw, tissue after 180 minutes
Description: (§1) The test used below is described by Campos et. al. in the publication Br. J. Pharmacol. 135: 1107-1114, 2002, with minor modifications. Male 160-180 g rats were orally given 50 mg/kg of alpha-humulene. Animals treated with 0.9% (0.1 ml/10 g) saline were used as control. Another group of animals was treated with 0.5 mg/kg dexamethasone, subcutaneously, 4 hours before the test, and used as positive control. After 60 minutes, the animals received intraplantar injections of 100 μl of carrageenin (300 μg/paw) and were sacrificed after 180 minutes. Control animals received saline. The subcutaneous tissue of the injected paws was removed and put in a phosphate buffer containing 0.5% tween 20, 0.1 mM benzametonium chloride, 10 mM EDTA, 2 μg/m aprotinin, 0.1 mM PMSF (phenyl methyl sulfonyl fluoride) and 0.5% BSA (bovine serum albumin). The tissues were homogenized and centrifuged at 3000 g, for 10 min, at −4° C. The supernatant was used in the test. The levels of IL-1β were measures with an Elisa kit, according to the manufacturer's instructions (R & D Systems®, USA). The tests were performed in duplicate, and repeated three times. The answers are expressed in pg/mg of tissue. […]

[3] = system: TNFα; experiment: Levels of pro-inflammatory cytokine TNFα in carrageenin-injected rat paw (Elisa); details: 50 mg/kg orally 60 minutes before carrageenin 300 μg/paw, tissue after 180 minutes
Description: The test used below is described by Campos et. al. in the publication Br. J. Pharmacol. 135: 1107-1114, 2002, with minor modifications.
as §1, with “Male” for “The test used below is described by Campos et. al. in the publication Br. J. Pharmacol. 135: 1107-1114, 2002, with minor modifications. Male”, “[…]-180” for “160-180”, “trans-caryophyllene.” for “alpha-humulene.”, “TNFαwere” for “IL-1β were”

| Compound | inflammatory volume (paw oedema volume) [1] | production of pro-inflammatory cytokine IL-1β induced by carrageenin in the paws of rats [2] | production of pro-inflammatory cytokine TNFα induced by carrageenin in the paws of rats [3] |
| --- | --- | --- | --- |
| C/C1=C\CC/C(C)=C/CC(C)(C)/C=C/C1 [alpha-humulene] | reduced the inflammatory volume | markedly inhibited the production |  |
| C=C1CC/C=C(\C)CC[C@@H]2[C@@H]1CC2(C)C [trans-caryophyllene] |  |  | markedly inhibited the production |

Reference: US20080280996A1, “Use of Carophyllenes in the Manufacture of Medicaments and Treatment of Bodily Conditions of Inflammation and Inflammatory Pain” (priority 2004, published 2008)
